Results published in ChEMBL document CHEMBL1201862, “PubChem BioAssay data set” (2004).
Activity calls are given as the source filed them.

Experiments:
Genome polyprotein = Genome polyprotein (Hepatitis C virus, UniProt Q2Q167); experiment: disruption of hepatitis C core self-association – biochemical, TR-FRET, dose response (AID 2159); parameters: species or system Hepacivirus hominis;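 note: blocks dimerization of HCV core protein measured by TR-FRET between tagged core106 pairs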
Large T antigen = Large T antigen (Simian virus 40, UniProt P03070); type: functional, Betapolyomavirus macacae;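 note: Confirmatory-stage PubChem screen for compounds that inhibit SV40 T antigen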
Troponin, cardiac muscle = Troponin, cardiac muscle (Homo sapiens, UniProt P19429+P45379+P63316); experiment: compounds desensitizing RTF to calcium – biochemical, fluorescence, cardiac regulated thin filaments, triplicate IC50, dose response (AID 504742); type: protein-complex assay
[1] = biological target: T1, Small ubiquitin-related modifier 1 (Homo sapiens, UniProt P63165); experiment: SUMO1 protein interaction blockers, potency – biochemical, fluorescence polarization, uHTS hits, dose response (AID 624382); type: functional; conditions: read-out: IC50_Mean
[2] = biological target: T1, Small ubiquitin-related modifier 1; experiment: SUMO1 protein-protein binding blockers, potency – biochemical, FRET, dose response (AID 624383); type: functional; conditions: read-out: IC50_Mean
Caspase-6 = biological target: T2, Caspase-6 (Homo sapiens, UniProt P55212); experiment: inhibition of CASP6 peptide cleavage – biochemical, VEID-R110 fluorescence, cherry-pick, dose response (AID 720632)
T2 sequence (P55212 whole entry): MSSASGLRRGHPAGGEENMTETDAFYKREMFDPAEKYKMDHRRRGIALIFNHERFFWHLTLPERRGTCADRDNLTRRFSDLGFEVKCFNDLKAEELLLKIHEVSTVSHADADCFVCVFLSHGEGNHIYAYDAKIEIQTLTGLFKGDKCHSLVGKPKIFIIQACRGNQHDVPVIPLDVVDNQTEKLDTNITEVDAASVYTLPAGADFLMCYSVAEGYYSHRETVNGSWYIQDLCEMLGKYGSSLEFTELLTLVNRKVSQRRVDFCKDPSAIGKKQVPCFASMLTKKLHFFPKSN

Caspase-9 = Caspase-9 (Homo sapiens, UniProt P55211); experiment: inhibitors of purified CASP9 protease – biochemical, fluorescence, plate reader, cherry-picked samples, selectivity assay for caspase-6 inhibitor project, dose response (AID 743293)
[3] = biological target: NAD-dependent protein deacylase sirtuin-5, mitochondrial (Homo sapiens, UniProt Q9NXA8); experiment: sirtuin-5 deacylation blockers, concentration series – biochemical, fluorescence imaging, cherry-pick, set 5, dose response (AID 720591);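 note: desuccinylation of succinyl peptide AMC substrate read as fluorescence after trypsin release; potency of inhibitors that lower fluorescence and may act on trypsin instead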
Caspase-8 = Caspase-8 (Homo sapiens, UniProt Q14790); experiment: inhibitors of purified CASP8 protease – biochemical, Z-IETD-R110 fluorescence, cherry-picked samples, selectivity assay for caspase-6 inhibitor project, dose response (AID 743294)
[4] = biological target: T3, Ubiquitin-conjugating enzyme E2 N (Homo sapiens, UniProt P61088); type: functional;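 note: Dose-response confirmation in a TR-FRET assay detecting UBC13-driven polyubiquitin chain formation, inhibition measured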
T3 sequence (P61088 whole entry): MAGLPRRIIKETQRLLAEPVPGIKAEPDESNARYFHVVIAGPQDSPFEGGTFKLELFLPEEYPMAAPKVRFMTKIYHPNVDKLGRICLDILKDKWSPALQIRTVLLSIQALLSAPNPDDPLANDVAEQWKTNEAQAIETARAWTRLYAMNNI

[5] = biological target: DNA damage-inducible transcript 3 protein (Mus musculus, UniProt P35639); type: functional, Cricetulus griseus
Leucine aminopeptidase = biological target: T4, Leucine aminopeptidase (Plasmodium falciparum 3D7, UniProt Q8IL11); experiment: P. falciparum M17LAP inhibitors, primary screen, biochemical, fluorogenic H-Leu-NHMec substrate, 1536-well (AID 1619); type: functional
T4 sequence (Q8IL11 whole entry): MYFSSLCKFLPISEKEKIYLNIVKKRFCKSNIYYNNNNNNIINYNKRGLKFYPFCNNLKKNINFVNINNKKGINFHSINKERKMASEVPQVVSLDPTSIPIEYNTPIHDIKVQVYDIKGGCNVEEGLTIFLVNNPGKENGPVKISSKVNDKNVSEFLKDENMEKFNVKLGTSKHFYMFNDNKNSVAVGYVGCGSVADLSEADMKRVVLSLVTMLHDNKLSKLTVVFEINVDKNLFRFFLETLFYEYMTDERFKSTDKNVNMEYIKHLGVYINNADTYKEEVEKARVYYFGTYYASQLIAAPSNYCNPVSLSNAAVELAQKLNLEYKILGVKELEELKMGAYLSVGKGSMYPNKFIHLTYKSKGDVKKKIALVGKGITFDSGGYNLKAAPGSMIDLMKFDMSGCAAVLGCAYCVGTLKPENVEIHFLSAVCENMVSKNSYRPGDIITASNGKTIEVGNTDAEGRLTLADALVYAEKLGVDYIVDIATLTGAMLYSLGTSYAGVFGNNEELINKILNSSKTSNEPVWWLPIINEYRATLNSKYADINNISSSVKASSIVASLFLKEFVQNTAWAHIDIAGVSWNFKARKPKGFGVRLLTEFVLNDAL

[6] = biological target: DNA dC->dU-editing enzyme APOBEC-3A (Homo sapiens, UniProt P31941); experiment: A3A deaminase inhibition for selectivity – biochemical, dose response (AID 504722); type: functional
[7] = biological target: DNA dC->dU-editing enzyme APOBEC-3G (Homo sapiens, UniProt Q9HC16); experiment: Dose Response confirmation of small molecule APOBEC3G DNA Deaminase Inhibitors via a fluorescence-based single-stranded DNA deaminase assay. [Related pubchem assays (depositor defined):AID493012, AID493028]; type: functional
[8] = biological target: T5, Voltage-gated N-type calcium channel alpha-1B subunit/Amyloid beta A4 precursor protein-binding family A member 1 (Homo sapiens, UniProt Q00975+Q02410); type: protein assay
[9] = biological target: T5, Voltage-gated N-type calcium channel alpha-1B subunit/Amyloid beta A4 precursor protein-binding family A member 1; type: protein assay; remark: listed apart in the source

T5 sequence (Q00975 whole entry): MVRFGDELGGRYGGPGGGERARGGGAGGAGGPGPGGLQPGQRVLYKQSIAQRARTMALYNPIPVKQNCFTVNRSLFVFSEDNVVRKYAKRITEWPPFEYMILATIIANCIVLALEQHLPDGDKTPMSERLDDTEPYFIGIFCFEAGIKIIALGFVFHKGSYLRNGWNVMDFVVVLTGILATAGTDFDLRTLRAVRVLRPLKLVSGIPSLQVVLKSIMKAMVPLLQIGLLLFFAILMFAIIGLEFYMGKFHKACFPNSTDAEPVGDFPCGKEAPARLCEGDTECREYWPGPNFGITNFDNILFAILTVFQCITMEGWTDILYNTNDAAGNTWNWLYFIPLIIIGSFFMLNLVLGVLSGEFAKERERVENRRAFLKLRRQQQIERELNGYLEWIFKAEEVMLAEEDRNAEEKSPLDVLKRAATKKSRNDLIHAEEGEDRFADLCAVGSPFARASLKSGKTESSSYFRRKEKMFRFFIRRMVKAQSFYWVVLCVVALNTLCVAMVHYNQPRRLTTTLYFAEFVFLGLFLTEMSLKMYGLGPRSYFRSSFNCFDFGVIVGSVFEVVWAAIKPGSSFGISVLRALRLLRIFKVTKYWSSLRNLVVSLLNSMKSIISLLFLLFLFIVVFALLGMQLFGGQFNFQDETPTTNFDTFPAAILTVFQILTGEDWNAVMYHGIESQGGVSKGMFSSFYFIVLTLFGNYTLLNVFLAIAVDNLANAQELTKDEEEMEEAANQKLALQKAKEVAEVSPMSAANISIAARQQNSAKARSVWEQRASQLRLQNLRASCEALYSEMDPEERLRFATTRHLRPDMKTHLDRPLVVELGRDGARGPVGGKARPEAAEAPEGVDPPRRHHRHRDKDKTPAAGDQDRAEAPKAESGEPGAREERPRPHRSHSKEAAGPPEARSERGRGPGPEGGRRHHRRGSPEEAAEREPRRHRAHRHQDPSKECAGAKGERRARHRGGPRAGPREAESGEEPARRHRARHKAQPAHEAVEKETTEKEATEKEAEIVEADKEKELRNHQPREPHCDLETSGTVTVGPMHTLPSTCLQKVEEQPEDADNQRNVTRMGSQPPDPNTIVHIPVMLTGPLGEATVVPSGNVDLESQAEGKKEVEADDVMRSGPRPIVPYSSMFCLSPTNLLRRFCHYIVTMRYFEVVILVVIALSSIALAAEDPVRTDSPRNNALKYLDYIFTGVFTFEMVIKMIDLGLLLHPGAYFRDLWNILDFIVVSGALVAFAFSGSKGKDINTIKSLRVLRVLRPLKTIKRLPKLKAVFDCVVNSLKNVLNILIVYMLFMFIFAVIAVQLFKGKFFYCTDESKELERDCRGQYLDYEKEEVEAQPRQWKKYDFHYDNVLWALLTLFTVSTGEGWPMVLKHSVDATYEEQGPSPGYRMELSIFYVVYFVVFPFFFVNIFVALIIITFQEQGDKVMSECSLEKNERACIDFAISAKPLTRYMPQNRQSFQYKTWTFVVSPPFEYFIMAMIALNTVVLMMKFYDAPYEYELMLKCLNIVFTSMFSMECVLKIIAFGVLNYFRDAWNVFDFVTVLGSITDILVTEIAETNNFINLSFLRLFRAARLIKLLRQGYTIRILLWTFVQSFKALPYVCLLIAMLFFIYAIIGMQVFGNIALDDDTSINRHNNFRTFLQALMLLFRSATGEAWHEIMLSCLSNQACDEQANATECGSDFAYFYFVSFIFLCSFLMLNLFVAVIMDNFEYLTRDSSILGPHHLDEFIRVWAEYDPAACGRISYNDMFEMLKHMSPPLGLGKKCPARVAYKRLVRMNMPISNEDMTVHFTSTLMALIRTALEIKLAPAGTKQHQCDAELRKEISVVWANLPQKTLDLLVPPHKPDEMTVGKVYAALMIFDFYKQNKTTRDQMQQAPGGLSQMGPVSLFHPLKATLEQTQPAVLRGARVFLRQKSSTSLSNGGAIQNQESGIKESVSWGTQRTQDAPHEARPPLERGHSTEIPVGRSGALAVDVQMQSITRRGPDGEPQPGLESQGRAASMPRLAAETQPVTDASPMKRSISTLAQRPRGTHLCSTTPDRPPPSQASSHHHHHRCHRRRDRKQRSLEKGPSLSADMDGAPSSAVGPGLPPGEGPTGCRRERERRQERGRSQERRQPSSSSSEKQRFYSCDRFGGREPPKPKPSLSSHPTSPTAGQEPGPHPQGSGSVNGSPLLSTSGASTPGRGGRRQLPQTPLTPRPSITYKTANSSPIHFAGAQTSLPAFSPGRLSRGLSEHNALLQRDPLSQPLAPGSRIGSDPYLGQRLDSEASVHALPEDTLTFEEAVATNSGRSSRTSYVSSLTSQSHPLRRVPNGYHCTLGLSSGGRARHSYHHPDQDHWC
T5 sequence (Q02410 whole entry): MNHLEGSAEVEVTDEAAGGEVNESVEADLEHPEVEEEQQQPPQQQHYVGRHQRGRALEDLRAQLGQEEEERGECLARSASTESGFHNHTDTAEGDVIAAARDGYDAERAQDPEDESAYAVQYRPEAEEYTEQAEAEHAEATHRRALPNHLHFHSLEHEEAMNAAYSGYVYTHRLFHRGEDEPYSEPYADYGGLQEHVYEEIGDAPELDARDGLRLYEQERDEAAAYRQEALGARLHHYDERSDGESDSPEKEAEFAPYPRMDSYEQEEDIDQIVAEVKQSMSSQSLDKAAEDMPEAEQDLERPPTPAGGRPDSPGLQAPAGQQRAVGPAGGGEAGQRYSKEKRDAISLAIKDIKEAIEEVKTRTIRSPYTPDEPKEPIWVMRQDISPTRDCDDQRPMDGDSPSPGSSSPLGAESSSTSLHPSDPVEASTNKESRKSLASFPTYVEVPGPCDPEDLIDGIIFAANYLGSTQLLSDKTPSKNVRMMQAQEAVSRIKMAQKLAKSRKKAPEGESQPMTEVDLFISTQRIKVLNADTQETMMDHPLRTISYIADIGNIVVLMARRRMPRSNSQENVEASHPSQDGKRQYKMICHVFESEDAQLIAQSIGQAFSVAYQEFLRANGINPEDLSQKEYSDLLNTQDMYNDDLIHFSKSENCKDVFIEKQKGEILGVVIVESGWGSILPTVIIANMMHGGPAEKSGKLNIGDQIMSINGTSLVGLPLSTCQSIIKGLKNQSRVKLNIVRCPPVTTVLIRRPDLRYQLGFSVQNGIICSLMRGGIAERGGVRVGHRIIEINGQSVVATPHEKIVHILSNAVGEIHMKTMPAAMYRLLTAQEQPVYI
T1 sequence (P63165 whole entry): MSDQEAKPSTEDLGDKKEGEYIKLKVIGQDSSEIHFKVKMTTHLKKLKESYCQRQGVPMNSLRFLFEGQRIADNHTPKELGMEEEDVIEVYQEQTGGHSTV
DNA dC->dU-editing enzyme APOBEC-3G, sequence (Q9HC16 whole entry): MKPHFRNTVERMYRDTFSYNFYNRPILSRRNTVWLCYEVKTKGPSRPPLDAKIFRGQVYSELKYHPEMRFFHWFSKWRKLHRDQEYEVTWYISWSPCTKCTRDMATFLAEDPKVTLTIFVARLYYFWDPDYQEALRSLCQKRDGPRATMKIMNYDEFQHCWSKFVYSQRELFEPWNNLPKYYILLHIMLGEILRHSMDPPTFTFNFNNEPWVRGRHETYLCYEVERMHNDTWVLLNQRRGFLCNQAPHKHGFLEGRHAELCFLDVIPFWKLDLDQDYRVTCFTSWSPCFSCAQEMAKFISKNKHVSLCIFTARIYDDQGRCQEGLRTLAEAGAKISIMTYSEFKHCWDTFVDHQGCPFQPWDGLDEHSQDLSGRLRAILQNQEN
Caspase-9, sequence (P55211 1-315 limits assumed): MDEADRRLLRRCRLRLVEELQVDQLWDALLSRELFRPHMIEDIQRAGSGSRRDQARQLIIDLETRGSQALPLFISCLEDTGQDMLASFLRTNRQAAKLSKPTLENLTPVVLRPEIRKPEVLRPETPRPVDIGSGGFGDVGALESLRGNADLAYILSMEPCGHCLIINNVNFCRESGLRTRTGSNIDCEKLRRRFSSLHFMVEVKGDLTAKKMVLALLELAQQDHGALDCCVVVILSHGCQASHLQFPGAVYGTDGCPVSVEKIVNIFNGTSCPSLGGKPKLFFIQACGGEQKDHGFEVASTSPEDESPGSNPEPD
Caspase-9, sequence (P55211 331-416 limits assumed): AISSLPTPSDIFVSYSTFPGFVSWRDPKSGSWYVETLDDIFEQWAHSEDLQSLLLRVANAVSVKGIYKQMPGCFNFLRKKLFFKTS
Large T antigen, sequence (P03070 whole entry): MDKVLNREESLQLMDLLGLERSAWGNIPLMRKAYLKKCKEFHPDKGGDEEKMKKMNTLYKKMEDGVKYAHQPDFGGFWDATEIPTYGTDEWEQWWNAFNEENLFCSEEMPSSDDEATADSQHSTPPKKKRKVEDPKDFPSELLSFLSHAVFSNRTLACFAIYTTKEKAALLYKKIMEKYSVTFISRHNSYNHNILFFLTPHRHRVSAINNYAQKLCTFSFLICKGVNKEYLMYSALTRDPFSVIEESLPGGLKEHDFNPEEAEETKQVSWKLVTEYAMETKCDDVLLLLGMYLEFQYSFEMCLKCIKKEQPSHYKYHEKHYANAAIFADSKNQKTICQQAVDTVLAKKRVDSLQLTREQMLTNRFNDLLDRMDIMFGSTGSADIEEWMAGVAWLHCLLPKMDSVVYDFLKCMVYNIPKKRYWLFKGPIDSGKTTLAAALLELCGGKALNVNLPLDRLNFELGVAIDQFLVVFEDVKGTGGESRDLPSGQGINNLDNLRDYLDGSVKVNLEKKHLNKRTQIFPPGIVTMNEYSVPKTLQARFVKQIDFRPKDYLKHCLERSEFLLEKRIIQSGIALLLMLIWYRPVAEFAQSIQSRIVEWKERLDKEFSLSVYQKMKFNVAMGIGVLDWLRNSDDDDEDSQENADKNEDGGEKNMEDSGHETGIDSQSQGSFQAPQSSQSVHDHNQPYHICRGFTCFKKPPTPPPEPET
Caspase-8, sequence (Q14790 217-374 limits assumed): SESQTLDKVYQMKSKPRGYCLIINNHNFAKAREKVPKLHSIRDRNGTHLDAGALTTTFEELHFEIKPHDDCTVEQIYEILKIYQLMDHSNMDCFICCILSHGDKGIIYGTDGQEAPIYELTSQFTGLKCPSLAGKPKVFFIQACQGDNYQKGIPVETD
Caspase-8, sequence (Q14790 385-479 limits assumed): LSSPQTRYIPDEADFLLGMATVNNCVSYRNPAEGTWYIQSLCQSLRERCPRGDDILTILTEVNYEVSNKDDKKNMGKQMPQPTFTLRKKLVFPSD

Structure (SMILES): COCCN(C(=O)COC(=O)c1cc2c(s1)CCC2)c1c(N)n(Cc2ccccc2)c(=O)[nH]c1=O
- IC50 (Genome polyprotein): 48.6 µM (not active)
- IC50 (Large T antigen): 57.7 µM (active)
- IC50 (Troponin, cardiac muscle): 19.7 µM (inactive)
- IC50 [1]: > 66.6 µM (inactive)
- IC50 [2]: 1.42 µM (active)
- AC50 (Caspase-6): 0.198 µM (active)
- AC50 (Caspase-9): 12.1 µM (active)
- AC50 [3]: > 30 µM (inactive)
- AC50 (Caspase-8): > 70 µM (inactive)

Structure (SMILES): CCOC(=O)c1cc(-c2ccccc2)nc2c1c(C)nn2-c1ccccn1
- IC50 [4]: > 20 µM (inactive)
- Absolute IC50 (CHOP) [5]: 10 µM

Structure (SMILES): Sc1n[nH]c(C2CCCCC2)n1
- IC50 (Leucine aminopeptidase): 13.8 µM (active)
- IC50 [6]: > 100 µM (inactive)
- IC50 [7]: 8.98 µM (active)

Structure (SMILES): COc1ccc(NC(=O)c2cc3c(=O)n(C)c4ccccc4c3s2)cc1OC
- IC50 [8]: 8 µM (active)
- IC50 [9]: > 50 µM (inactive)
